Paper PMC13065040 (PLOS One, 2026)
Where “and” joins values, the source holds several entries; their conditions need not be identical. Equal entries are not always repeated. Where a SMILES comes first, the peptide text is derived from it. Bridges are numbered along the chain shown (N, C = ends).

Legend:
MMP-2 [1] = biological target: T1, MMP-2 (Homo sapiens, UniProt P08253); experiment: MMP-2 inhibition assay (Enzo kit, OmniMMP RED fluorogenic substrate); type: biochemical
T1 construct: purchased Enzo Life Sciences (MMP-2 drug discovery kit)
Method: The MMP-2 inhibition assay was performed using the Enzo Life Sciences MMP-2 drug discovery kit. and the quenched fluorogenic substrate OmniMMP RED. Reference substrate was diluted to a final concentration of 5 μM, while the MMP-2 enzyme was diluted to 58 mU/µL, and the N-Isobutyl-N-(4-methoxyphenylsulfonyl)glycyl hydroxamic acid (NNGH) inhibitor was diluted to a concentration of 1/200 in assay buffer. […] The assay was performed using a black 96-well microplate. Fluorescence was measured at excitation/emission wavelengths of 545/576 nm, with a cutoff at 570 nm using Gen5 microplate reader (BioTeK, Shoreline, WA). Baseline fluorescence was recorded before adding NNGH inhibitor which was used as a positive control for MMP-2 inhibition. Reaction mixtures in the plate were incubated at 37 °C for 10 min, and fluorescence was measured at 10 min intervals for the first 30 min, then at 30 min intervals until 2 h had elapsed. […] Statistical analysis was performed using ANOVA with GraphPad Prism software, version 10.0.3.

Neuropilin-1 (NRP-1) = biological target: T2, Neuropilin-1 (NRP-1) (Homo sapiens, UniProt O14786); experiment: Surface plasmon resonance (SPR), immobilized NRP-1; type: binding; conditions: NTA chip, steady-state affinity model, pH 7.4, n = 3, 4 replicates, read-out: dissociation constant (KD) for NRP-1
T2 construct: containing amino acid residues Phe22-Lys644, with a poly-histidine tag at the C-terminus; purchased ACROBiosystems NR1-H5228
T2 sequence (O14786 22-644 isoform O14786-2): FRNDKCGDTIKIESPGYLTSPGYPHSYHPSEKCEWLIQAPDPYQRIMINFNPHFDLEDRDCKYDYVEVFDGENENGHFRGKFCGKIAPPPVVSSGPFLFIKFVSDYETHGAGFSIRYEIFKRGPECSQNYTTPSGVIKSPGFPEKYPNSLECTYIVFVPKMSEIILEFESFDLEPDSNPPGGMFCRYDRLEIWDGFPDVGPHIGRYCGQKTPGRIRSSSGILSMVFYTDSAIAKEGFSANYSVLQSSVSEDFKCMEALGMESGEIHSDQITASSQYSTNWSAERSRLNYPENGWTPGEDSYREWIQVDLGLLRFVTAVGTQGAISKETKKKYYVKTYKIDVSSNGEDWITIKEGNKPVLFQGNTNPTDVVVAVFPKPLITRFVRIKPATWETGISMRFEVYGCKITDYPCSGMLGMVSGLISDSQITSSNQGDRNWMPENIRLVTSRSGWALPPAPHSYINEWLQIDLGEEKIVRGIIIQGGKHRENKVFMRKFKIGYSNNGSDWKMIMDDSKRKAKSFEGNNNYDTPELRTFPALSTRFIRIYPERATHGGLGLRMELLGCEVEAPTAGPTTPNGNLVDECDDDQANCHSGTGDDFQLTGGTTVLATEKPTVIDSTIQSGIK
Method: Surface plasmon resonance (SPR) reagents, plates, and the NTA chip were purchased from GE Healthcare Life Sciences, now Cytiva (Marlborough, MA, USA). Measurements were performed using the Biacore 8000 SPR System (Marlborough, MA. USA). The running buffer used for protein immobilization and peptide binding consisted of 20 mM Tris, 150 mM NaCl, […] and 0.0005% Tween-20, adjusted to pH 7.4. MMP-2 and NRP-1 were immobilized onto the NTA chip at 15 nM and 25 nM concentration, respectively. Peptides were injected over the immobilized proteins using two-fold serial dilutions from 500 µM to 3.90 µM. Three experiments with four replicates of each were performed. The SPR response curves generated from the Biacore Insight Evaluation Software were fitted to a steady-state affinity model to obtain an equilibrium dissociation constant (KD) for each peptide — protein interaction.

MMP-2 [2] = biological target: T3, MMP-2 (Homo sapiens, UniProt P08253); experiment: Differential scanning fluorimetry (DSF); type: binding; parameters: Dtm (ΔTm): unit not given here; conditions: for Dtm (ΔTm), average: average of replicates
T3 construct: ProSpec Bio; Antibodies-Online; Elabscience; Abcam ENZ-769; ABIN7400042; PKSH033450
T3 sequence (P08253 110-660): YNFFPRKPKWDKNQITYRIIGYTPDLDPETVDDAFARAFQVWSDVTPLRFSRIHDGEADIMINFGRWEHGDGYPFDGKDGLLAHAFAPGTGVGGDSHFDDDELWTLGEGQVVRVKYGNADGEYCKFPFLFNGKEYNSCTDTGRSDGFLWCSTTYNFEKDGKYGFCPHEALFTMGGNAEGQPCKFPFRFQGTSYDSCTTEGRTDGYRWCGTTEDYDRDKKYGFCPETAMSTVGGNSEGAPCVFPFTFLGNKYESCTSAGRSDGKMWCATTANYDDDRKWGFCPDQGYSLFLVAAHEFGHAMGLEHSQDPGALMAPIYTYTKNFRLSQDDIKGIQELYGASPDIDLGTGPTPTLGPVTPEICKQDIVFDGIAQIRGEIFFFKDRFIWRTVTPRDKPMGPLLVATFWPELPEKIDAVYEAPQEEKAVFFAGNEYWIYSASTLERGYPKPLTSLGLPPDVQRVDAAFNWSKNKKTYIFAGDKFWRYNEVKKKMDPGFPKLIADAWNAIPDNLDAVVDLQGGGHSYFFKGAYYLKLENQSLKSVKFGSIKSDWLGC
Method: The melting temperatures (Tm) of recombinant MMP-2 and its complexes with peptides were ascertained using BioRad CFX384 Touch real-time PCR (Hercules, CA, USA). The experiments were performed as previously described. The unfolding of the protein was detected using the fluorescent SYPRO-orange dye (Invitrogen, Carlsbad, CA, USA). MMP-2 and prospective ligand peptides were dissolved in 7.1 pH phosphate buffered saline (154 mM NaCl, 5.6 mM Na2PO4, 1.1 mM KH2PO4), and the reaction mixture was made to a final concentration of 1 µM of protein, either 30 µM ([…]) of peptide, and 1000x dilution of the SYPRO-Orange dye stock from the manufacturer. Excitation and emission filters of the dye were set at 450 − 490 nm and 560 − 580 nm, respectively. The temperature for the reaction was held at 25 °C for 5 min, and then a gradient of 25 °C to 95 °C was applied at a rate of 0.3 °C/min, and the fluorescence was recorded. To determine Tm of the protein, the first derivatives of melting curves were plotted using GraphPad Prism software, version 10.0.3.

[3] = peptide 30, P75/P76 experiment 1, replicate 1
[4] = peptide 30, P75/P76 experiment 1, replicate 2
[5] = peptide 30, P75/P76 experiment 1, replicate 3
[6] = peptide 30, P75/P76 experiment 2, replicate 1
[7] = peptide 30, P75/P76 experiment 2, replicate 2
[8] = peptide 30, P75/P76 experiment 2, replicate 3
[9] = peptide 30, P75/P76 experiment 3, replicate 1
[10] = peptide 30, P75/P76 experiment 3, replicate 2
[11] = peptide 30, P75/P76 experiment 3, replicate 3
[12] = peptide 50, P75/P76 experiment 1, replicate 2
[13] = peptide 50, P75/P76 experiment 1, replicate 3
[14] = peptide 50, P75/P76 experiment 2, replicate 1
[15] = peptide 50, P75/P76 experiment 2, replicate 2
[16] = peptide 50, P75/P76 experiment 2, replicate 3
[17] = peptide 50, P75/P76 experiment 3, replicate 1
[18] = peptide 50, P75/P76 experiment 3, replicate 2
[19] = peptide 50, P75/P76 experiment 3, replicate 3

COc1ccc(S(=O)(=O)N(CC(=O)NO)CC(C)C)cc1 [NNGH, N-Isobutyl-N-(4-methoxyphenylsulfonyl)glycyl hydroxamic acid]
MMP-2 enzymatic activity, percent of control (MMP-2 [1]): 11.2096 and 16.193

CC(=O)NCC(=O)N[C@@H](CCCNC(=N)N)C(=O)NCC(=O)N[C@@H](CCCCN)C(=O)N[C@H]1CSSC[C@@H](C(=O)N[C@@H](CC(C)C)C(=O)N[C@@H](CO)C(=O)N[C@@H](CCCNC(=N)N)C(N)=O)NC(=O)[C@H](CCC(N)=O)NC(=O)[C@@H]2CCCN2C(=O)CNC(=O)[C@H](Cc2ccc(O)cc2)NC1=O [P75, Ac-[Ser^35,Cyc(28,33)]Ctx(24–36)-NH2] (Ac-GRGKCYGPQCLSR-NH2; disulfide 5-10)
Kd (Neuropilin-1 (NRP-1)): 330 ± 146 µM | Dtm (ΔTm) (MMP-2 [2]; [3]): 1.067 | Dtm (ΔTm) (MMP-2 [2]; [4]): 1.067 | Dtm (ΔTm) (MMP-2 [2]; [5]): 1.367 | Dtm (ΔTm) (MMP-2 [2]; [6]): 0.6 | Dtm (ΔTm) (MMP-2 [2]; [7]): 0.6 | Dtm (ΔTm) (MMP-2 [2]; [8]): 0.6 | Dtm (ΔTm) (MMP-2 [2]; [9]): 0.2 | Dtm (ΔTm) (MMP-2 [2]; [10]): -0.4 | Dtm (ΔTm) (MMP-2 [2]; [11]): -0.1 | Dtm (ΔTm), average (MMP-2 [2]; peptide 50 (µM per method)): 0.7556

CC(=O)N[C@@H](CCCCN)C(=O)N[C@H]1CSSC[C@@H](C(=O)N[C@@H](CC(C)C)C(N)=O)NC(=O)[C@H](CCC(N)=O)NC(=O)[C@@H]2CCCN2C(=O)CNC(=O)[C@H](Cc2ccc(O)cc2)NC1=O [P78, Ac-[Cyc(28,33)]Ctx(27–34)-NH2] (Ac-KCYGPQCL-NH2; disulfide 2-7)
Kd (Neuropilin-1 (NRP-1)): 267 ± 103 µM

Ac-[Cys^26,Ser^28,33,Cyc(26,35)]Ctx(24–36)-NH2 [P76]
ΔTm ± SD, change in melting temperature of MMP-2 (MMP-2 [2]; 1 µM MMP-2, 30 µM (Ctx) or 50 µM (P75 and P76) peptide, PBS pH 7.1, SYPRO-Orange, average and SD of n ≥ 3, SD): 0.63 ± 0.36 °C | Dtm (ΔTm), average (MMP-2 [2]; peptide 30 (µM per method)): 0.6556 | Dtm (ΔTm) (MMP-2 [2]; [3]): -0.7333 | Tm of MMP-2 with peptide (MMP-2 [2]; [3]): 45.7 °C | Dtm (ΔTm) (MMP-2 [2]; [4]): -0.4333 | Tm of MMP-2 with peptide (MMP-2 [2]; [4]): 46 °C | Dtm (ΔTm) (MMP-2 [2]; [5]): 0.1667 | Tm of MMP-2 with peptide (MMP-2 [2]; [5]): 46.6 °C | Dtm (ΔTm) (MMP-2 [2]; [6]): 1.8 | Tm of MMP-2 with peptide (MMP-2 [2]; [6]): 48.7 °C | Dtm (ΔTm) (MMP-2 [2]; [7]): 1.5 | Tm of MMP-2 with peptide (MMP-2 [2]; [7]): 48.4 °C | Dtm (ΔTm) (MMP-2 [2]; [8]): 1.8 | Tm of MMP-2 with peptide (MMP-2 [2]; [8]): 48.7 °C | Dtm (ΔTm) (MMP-2 [2]; [9]): 0.5 | Tm of MMP-2 with peptide (MMP-2 [2]; [9]): 47.8 °C | Dtm (ΔTm) (MMP-2 [2]; [10]): 0.5 | Tm of MMP-2 with peptide (MMP-2 [2]; [10]): 47.8 °C | Dtm (ΔTm) (MMP-2 [2]; [11]): 0.8 | Tm of MMP-2 with peptide (MMP-2 [2]; [11]): 48.1 °C | Dtm (ΔTm), average (MMP-2 [2]; peptide 50 (µM per method)): 0.6222 | Tm of MMP-2 with peptide (MMP-2 [2]; peptide 50, P75/P76 experiment 1, replicate 1): 47.8 °C | Dtm (ΔTm) (MMP-2 [2]; [12]): 0.6 | Tm of MMP-2 with peptide (MMP-2 [2]; [12]): 47.8 °C | Dtm (ΔTm) (MMP-2 [2]; [13]): 0.6 | Tm of MMP-2 with peptide (MMP-2 [2]; [13]): 47.8 °C | Dtm (ΔTm) (MMP-2 [2]; [14]): 0.5 | Tm of MMP-2 with peptide (MMP-2 [2]; [14]): 47.4 °C | Dtm (ΔTm) (MMP-2 [2]; [15]): 1.2 | Tm of MMP-2 with peptide (MMP-2 [2]; [15]): 48.1 °C | Dtm (ΔTm) (MMP-2 [2]; [16]): 1.2 | Tm of MMP-2 with peptide (MMP-2 [2]; [16]): 48.1 °C | Dtm (ΔTm) (MMP-2 [2]; [17]): 0.2 | Tm of MMP-2 with peptide (MMP-2 [2]; [17]): 47.5 °C | Dtm (ΔTm) (MMP-2 [2]; [18]): 0.5 | Tm of MMP-2 with peptide (MMP-2 [2]; [18]): 47.8 °C | Dtm (ΔTm) (MMP-2 [2]; [19]): 0.2 | Tm of MMP-2 with peptide (MMP-2 [2]; [19]): 47.5 °C | inhibition of MMP-2 enzymatic activity (Fig 10B) (MMP-2 [1]; peptides at 1 µM, 50 µM and 100 µM, one-way ANOVA vs control): not statistically significant
